Patent US20070004660A1, “Synergistic Modulation of Flt3 Kinase Using Alkylquinolines and Alkylquinazolines” (priority 2005, published 2007)

Molecular target: T1, wild-type FLT3 receptor (Homo sapiens, UniProt P36888)
T1 construct: host or cells: Baf3 (murine B cell lymphoma line), stably transfected
T1 sequence (P36888 27-993): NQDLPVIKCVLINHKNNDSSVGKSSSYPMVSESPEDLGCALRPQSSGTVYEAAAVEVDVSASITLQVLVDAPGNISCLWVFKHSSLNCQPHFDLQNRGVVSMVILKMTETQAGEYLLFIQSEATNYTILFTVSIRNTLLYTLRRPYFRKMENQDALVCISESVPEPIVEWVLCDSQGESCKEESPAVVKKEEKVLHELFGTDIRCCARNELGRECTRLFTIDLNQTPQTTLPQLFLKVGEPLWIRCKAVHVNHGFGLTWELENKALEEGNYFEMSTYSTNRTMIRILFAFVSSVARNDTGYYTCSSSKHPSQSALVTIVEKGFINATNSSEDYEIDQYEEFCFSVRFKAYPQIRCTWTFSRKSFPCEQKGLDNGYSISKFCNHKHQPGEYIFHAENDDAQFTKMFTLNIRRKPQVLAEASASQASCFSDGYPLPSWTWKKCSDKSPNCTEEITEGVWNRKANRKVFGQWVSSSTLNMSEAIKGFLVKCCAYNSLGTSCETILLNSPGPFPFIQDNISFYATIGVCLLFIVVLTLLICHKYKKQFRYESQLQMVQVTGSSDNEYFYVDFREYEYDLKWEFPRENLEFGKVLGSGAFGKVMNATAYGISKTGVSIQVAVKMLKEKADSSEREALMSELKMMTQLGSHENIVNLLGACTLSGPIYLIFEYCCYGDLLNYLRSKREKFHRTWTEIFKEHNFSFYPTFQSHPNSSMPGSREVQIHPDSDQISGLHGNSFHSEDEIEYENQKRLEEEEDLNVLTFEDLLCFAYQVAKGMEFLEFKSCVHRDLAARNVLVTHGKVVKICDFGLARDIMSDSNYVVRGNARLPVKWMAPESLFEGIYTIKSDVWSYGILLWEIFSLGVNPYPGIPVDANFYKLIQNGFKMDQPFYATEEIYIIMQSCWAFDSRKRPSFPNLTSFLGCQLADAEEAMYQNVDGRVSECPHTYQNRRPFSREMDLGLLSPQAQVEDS
Experiment: Cell-based FLT3 receptor ELISA (FLT ligand-induced phosphorylation in Baf3 FLT3 cells)
Conditions: 100 ng/mL Flt ligand, uncertainty ±20%
Experimental: Specific cellular inhibition of FLT ligand-induced wild-type FLT3 phosphorylation was measured in the following manner: Baf3 FLT3 cells overexpressing the FLT3 receptor were obtained from Dr. Michael Heinrich (Oregon Health and Sciences University). The Baf3 FLT3 cell lines were created by stable transfection of parental Baf3 cells (a murine B cell lymphoma line dependent on the cytokine IL-3 for growth) with wild-type FLT3. Cells were selected for their ability to grow in the absence of IL-3 and in the presence of FLT3 ligand. Baf3 cells were maintained in RPMI 1640 with 10% FBS, penn/strep and 10 ng/ml FLT ligand at 37° C., 5% CO2. To measure direct inhibition of the wild-type FLT3 receptor activity and phosphorylation a sandwich ELISA method was developed similar to those developed for other RTKs (see Sadick, M D, Sliwkowski, M X, Nuijens, A, Bald, L, Chiang, N, Lofgren, J A, Wong W L T. Analysis of Heregulin-Induced ErbB2 Phosphorylation with a High-Throughput Kinase Receptor Activation Enzyme-Linked Immunsorbent Assay, Analytical Biochemistry. 1996; 235:207-214 and Baumann C A, Zeng L, Donatelli R R, Maroney A C. Development of a quantitative, high-throughput cell-based enzyme-linked immunosorbent assay for detection of colony-stimulating factor-1 receptor tyrosine kinase inhibitors. J Biochem Biophys Methods. 2004; 60:69-79.). 200 μL of Baf3FLT3 cells (1×10^6 /mL) were plated in 96 well dishes in RPMI 1640 with 0.5% serum and 0.01 ng/mL IL-3 for 16 hours prior to 1 hour compound or DMSO vehicle incubation. Cells were treated with 100 ng/mL Flt ligand (R&D Systems Cat# 308-FK) for 10 min. at 37° C. Cells were pelleted, washed and lysed in 100 ul lysis buffer (50 mM Hepes, 150 mM NaCl, 10% Glycerol, 1% Triton-X-100, 10 mM NaF, 1 mM EDTA, 1.5 mM MgCl2, 10 mM NaPyrophosphate) supplemented with phosphatase (Sigma Cat# P2850) and protease inhibitors (Sigma Cat #P8340). Lysates were cleared by centrifugation at 1000×g for 5 minutes at 4° C. Cell lysates were transferred to white wall 96 well microtiter (Costar #9018) plates coated with 50 ng/well anti-FLT3 antibody (Santa Cruz Cat# sc-480) and blocked with SeaBlock reagent (Pierce Cat#37527). Lysates were incubated at 4° C. for 2 hours. Plates were washed 3× with 200 ul/well PBS/0.1% Triton-X-100. Plates were then incubated with 1:8000 dilution of HRP-conjugated anti-phosphotyrosine antibody (Clone 4G10, Upstate Biotechnology Cat#16-105) for 1 hour at room temperature. Plates were washed 3× with 200 ul/well PBS/0.1% Triton-X-100. Signal detection with Super Signal Pico reagent (Pierce Cat#37070) was done according to manufacturer's instruction with a Berthold microplate luminometer. All data points are an average of triplicate samples. […] Inhibition and IC50 data analysis was done with GraphPad Prism using a non-linear regression fit with a multiparamater, sigmoidal dose-response (variable slope) equation.

SMILES	IC50
COc1cc2ncnc(C3CCN(C(=O)Nc4ccc(C(C)C)cc4)CC3)c2cc1OC [Example 4, 4-(6,7-Dimethoxy-quinazolin-4-yl)-piperidine-1-carboxylic acid (4-isopropyl-phenyl)-amide]	56 nM
CC(C)Oc1ccc(NC(=O)N2CCC(c3ccnc4ccccc34)CC2)cc1 [Example 6, 4-Quinolin-4-yl-piperidine-1-carboxylic acid (4-isopropoxy-phenyl)-amide]	40 nM
CC(C)c1ccc(NC(=O)N2CCC(c3ncnc4ccccc34)CC2)cc1 [Example 7, 4-Quinazolin-4-yl-piperidine-1-carboxylic acid (4-isopropyl-phenyl)-amide]	367 nM
CC(C)Oc1ccc(NC(=O)N2CCC(c3ncnc4ccccc34)CC2)cc1 [Example 8, 4-Quinazolin-4-yl-piperidine-1-carboxylic acid (4-isopropoxy-phenyl)-amide]	851 nM
COc1cc2ncnc(C3CCN(CC(=O)Nc4ccc(C(C)C)cc4)CC3)c2cc1OC [Example 9, 2-[4-(6,7-Dimethoxy-quinazolin-4-yl)-piperidin-1-yl]-N-(4-isopropyl-phenyl)-acetamide]	7 nM
COc1cc2ncnc(C3CCN(CC(=O)Nc4ccc(OC(C)C)cc4)CC3)c2cc1OC [Example 10, 2-[4-(6,7-Dimethoxy-quinazolin-4-yl)-piperidin-1-yl]-N-(4-isopropoxy-phenyl)-acetamide]	31 nM
CC(C)Oc1ccc(NC(=O)N2CCC(c3ncnc4ccc(I)cc34)CC2)cc1 [Example 11, 4-(6-Iodo-quinazolin-4-yl)-piperidine-1-carboxylic acid (4-isopropoxy-phenyl)-amide]	1400 nM
CC(C)Oc1ccc(NC(=O)N2CCC(c3ncnc4ccc(C#CCO)cc34)CC2)cc1 [Example 12, 4-[6-(3-Hydroxy-prop-1-ynyl)-quinazolin-4-yl]-piperidine-1-carboxylic acid (4-isopropoxy-phenyl)-amide]	36 nM
CCN(CC)CC#Cc1ccc2ncnc(C3CCN(C(=O)Nc4ccc(OC(C)C)cc4)CC3)c2c1 [Example 13, 4-[6-(3-Diethylamino-prop-1-ynyl)-quinazolin-4-yl]-piperidine-1-carboxylic acid (4-isopropoxy-phenyl)-amide]	27 nM
CC(C)Oc1ccc(NC(=O)N2CCC(c3ncnc4ccc(C#CCN5CCCCC5)cc34)CC2)cc1 [Example 14, 4-[6-(3-Piperidin-1-yl-prop-1-ynyl)-quinazolin-4-yl]-piperidine-1-carboxylic acid (4-isopropoxy-phenyl)-amide]	186 nM
CCCCc1ccc(NC(=O)N2CCC(c3ncnc4cc(OC)c(OC)cc34)CC2)cc1 [Example 43, 4-(6,7-Dimethoxy-quinazolin-4-yl)-piperidine-1-carboxylic acid (4-butyl-phenyl)-amide]	59 nM
CCOc1ccc(NC(=O)N2CCC(c3ncnc4cc(OC)c(OC)cc34)CC2)cc1 [Example 44, 4-(6,7-Dimethoxy-quinazolin-4-yl)-piperidine-1-carboxylic acid (4-ethoxy-phenyl)-amide]	163 nM
COc1cc2ncnc(C3CCN(C(=O)Nc4ccccc4)CC3)c2cc1OC [Example 45, 4-(6,7-Dimethoxy-quinazolin-4-yl)-piperidine-1-carboxylic acid phenylamide]	> 3000 nM
COc1cc2ncnc(C3CCN(C(=O)Nc4ccc(Oc5ccccc5)cc4)CC3)c2cc1OC [Example 47, 4-(6,7-Dimethoxy-quinazolin-4-yl)-piperidine-1-carboxylic acid (4-phenoxy-phenyl)-amide]	8 nM
COc1cc2ncnc(C3CCN(C(=O)Nc4ccc(OC(F)F)cc4)CC3)c2cc1OC [Example 51, 4-(6,7-Dimethoxy-quinazolin-4-yl)-piperidine-1-carboxylic acid (4-difluoromethoxy-phenyl)-amide]	542 nM
CCC(C)c1ccc(NC(=O)N2CCC(c3ncnc4cc(OC)c(OC)cc34)CC2)cc1 (stereo not shown) [Example 52, 4-(6,7-Dimethoxy-quinazolin-4-yl)-piperidine-1-carboxylic acid (4-sec-butyl-phenyl)-amide]	7 nM
COc1cc2ncnc(C3CCN(C(=O)Nc4ccc(C(C)(C)C)cc4)CC3)c2cc1OC [Example 53, 4-(6,7-Dimethoxy-quinazolin-4-yl)-piperidine-1-carboxylic acid (4-tert-butyl-phenyl)-amide]	5 nM
COc1cc2ncnc(C3CCN(C(=O)NC4CCC(C(C)(C)C)CC4)CC3)c2cc1OC (stereo not shown) [Example 54, 4-(6,7-Dimethoxy-quinazolin-4-yl)-piperidine-1-carboxylic acid (4-tert-butyl-cyclohexyl)-amide]	266 nM
COc1cc2ncnc(C3CCN(C(=O)Nc4ccc(C(C)O)cc4)CC3)c2cc1OC (stereo not shown) [Example 55, 4-(6,7-Dimethoxy-quinazolin-4-yl)-piperidine-1-carboxylic acid [4-(1-hydroxy-ethyl)-phenyl]-amide]	1000 nM
COc1cc2ncnc(C3CCN(C(=O)Nc4ccc(OC(C)C)nc4)CC3)c2cc1OC [Example 56, 4-(6,7-Dimethoxy-quinazolin-4-yl)-piperidine-1-carboxylic acid (6-isopropoxy-pyridin-3-yl)-amide]	10 nM
COc1cc2ncnc(C3CCN(C(=O)Nc4ccc(N5CCCC5=O)cc4)CC3)c2cc1OC [Example 57, 4-(6,7-Dimethoxy-quinazolin-4-yl)-piperidine-1-carboxylic acid [4-(2-oxo-pyrrolidin-1-yl)-phenyl]-amide]	381 nM
COc1cc2ncnc(C3CCN(C(=O)Nc4ccc(-c5cncnc5)cc4)CC3)c2cc1OC [Example 58, 4-(6,7-Dimethoxy-quinazolin-4-yl)-piperidine-1-carboxylic acid (4-pyrimidin-5-yl-phenyl)-amide]	265 nM
COc1cc2ncnc(C3CCN(C(=O)Nc4ccc(-c5ccco5)cc4)CC3)c2cc1OC [Example 59, 4-(6,7-Dimethoxy-quinazolin-4-yl)-piperidine-1-carboxylic acid (4-furan-2-yl-phenyl)-amide]	27 nM
COc1cc2ncnc(C3CCN(C(=O)Nc4ccc(-c5ccc(Cl)nc5)cc4)CC3)c2cc1OC [Example 60, 4-(6,7-Dimethoxy-quinazolin-4-yl)-piperidine-1-carboxylic acid [4-(6-chloro-pyridin-3-yl)-phenyl]-amide]	46 nM
COc1cc2ncnc(C3CCN(C(=O)Nc4ccc(C5=CCN(C(=O)OC(C)(C)C)CC5)cc4)CC3)c2cc1OC [Example 61, 4-(4-{[4-(6,7-Dimethoxy-quinazolin-4-yl)-piperidine-1-carbonyl]-amino}-phenyl)-3,6-dihydro-2H-pyridine-1-carboxylic acid tert-butyl ester]	1800 nM
